Values of other authors as cited in patent publication US20040180006A1, “Methods and compositions for blocking the calcium cascade” (priority 2003, published 2004).
Where two headings read alike, the source gives them in different places.

Experiments:
[1] = system: mast cell plasma membrane potential; conditions: for effect on second (delayed) decrease of bis-oxonol fluorescence: induced by compound 48/80 or antigenic stimulation
[2] = system: rat peritoneal mast cells
[3] = system: rat basophilic leukemia cells (RBL 2H3); conditions: RBL 2H3 cells stimulated by immunoglobulin E-antigen; read-out: concentration required to inhibit histamine secretion from RBL 2H3 cells, immunoglobulin E-antigen
[4] = system: guinea pig trachea; conditions: 10^-4 to 10^-3 M

| Compound | effect on second (delayed) decrease of bis-oxonol fluorescence [1] | IC50 ([2]; peritoneal cells stimulated by imunoglobulin E-antigen, read-out: IC50 of histamine secretion, imunoglobulin E-antigen) [µM] | IC50 ([2]; peritoneal cells stimulated by ionophore A23187, read-out: IC50 of histamine secretion, ionophore A23187) [µM] | IC50 ([2]; peritoneal cells stimulated by phorbol 12-myristate 13-acetate, read-out: IC50 of histamine secretion, phorbol 12-myristate 13-acetate) [µM] | IC50 ([2]; peritoneal cells stimulated by substance P, read-out: IC50 of histamine secretion, substance P) [µM] | IC50 [3] [µM] | IgE-dependent contraction of guinea pig trachea [4] | contraction of guinea pig trachea induced by endogenous histamine [4] | effect on first (fast) decrease of bis-oxonol fluorescence ([1]; induced by compound 48/80) |
| --- | --- | --- | --- | --- | --- | --- | --- | --- | --- |
| C[C@@H]1O[C@@H](O[C@H]2C[C@@H](O)[C@]3(CO)[C@H]4[C@H](O)C[C@]5(C)[C@@H](C6=CC(=O)OC6)CC[C@]5(O)[C@@H]4CC[C@]3(O)C2)[C@H](O)[C@H](O)[C@H]1O [ouabain] | inhibited |  |  |  |  |  |  |  |  |
| zinc gluconate | did not alter | 18 | 1.6 | 1.9 | 5.4 | 140 | inhibited | unable to affect | inhibited |
